This is an account of results in the supplement of paper PMC11061612.

Assay [1] concerns RT-112 (Bladder Carcinoma). Briefly: Bliss excess, mean over the matrix (fraction); higher = more synergy. Summed up: (§1)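 Bliss excess equals the observed combination effect minus the expected value EA + EB − EA·EB, where EA and EB are the effects of each agent alone. Combination Emax is the second-highest inhibition within the matrix. Inhibition was scaled from CellTiter-Glo 2.0 luminescence, with 0 set by vehicle wells and 1 by blank wells, after 72 hours of two-drug dosing of cells plated in 1536-well plates.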

In assay [2] the test system is SUP-T1 (T-Lymphoblastic Leukemia). Described as above. Summed up:
as §1

The test system of assay [3] is LU-139 (Small Cell Lung Carcinoma). The description is as above. An outline of the steps:
as §1

Assay [4] has as its system NCI-H2795 (Mesothelioma). The description is as above. Summed up:
as §1

Assay [5] concerns NCI-H69 (Small Cell Lung Carcinoma). Described as above. Summed up:
as §1

Assay [6] relates to 8305C (Thyroid Gland Carcinoma). The assay is described as above. An outline of the steps:
as §1

In assay [7] the test system is Mewo (Melanoma). The assay is described as above. Summed up:
as §1

Assay [8] deals with SW1271 (Small Cell Lung Carcinoma). The assay is described as above. Summed up: as §1
Assay [9] has as its system HMV-II (Melanoma). The assay is described as above. Summed up: as §1
For assay [10], the system named is K5 (Thyroid Gland Carcinoma). The description is as above. An outline of the steps: as §1
Assay [11] relates to NCI-H2461 (Mesothelioma). Briefly: combination Emax (second highest fraction inhibited in the dose matrix, 72 h); higher = more inhibition; extreme values may be limits of the assay. An outline of the steps:
as §1

Assay [12] relates to SUP-T1 (T-Lymphoblastic Leukemia). The description is as above. Summed up: as §1
For assay [13], the system named is NCI-H28 (Mesothelioma). The description is as above. Summed up: as §1
Assay [14] concerns NCI-H2795 (Mesothelioma). Described as above. Summed up: as §1
Assay [15] relates to CAL-54 (Kidney Carcinoma). The assay is described as above. An outline of the steps: as §1
Assay [16] deals with HARA (Squamous Cell Lung Carcinoma). Described as above. An outline of the steps:
as §1

Assay [17] relates to LoVo (Colorectal Carcinoma). The description is as above. Summed up:
as §1

In assay [18] the test system is HDLM-2 (Hodgkin's Lymphoma). Described as above. An outline of the steps: as §1
The test system of assay [19] is MDA-MB-468 (Breast Carcinoma). Described as above. Summed up:
as §1

Assay [20] has as its system CAPAN-1 (Pancreatic Carcinoma). The description is as above. Summed up:
as §1

Turning to `O=C(c1cc(Cc2n[nH]c(=O)c3ccccc23)ccc1F)N1CCN(C(=O)C2CC2)CC1` [Olaparib] + Cc1c2c(nn1C)CSCc1cc(n(C)n1)CSc1cc(c3ccccc3c1)OCCCc1c(C(=O)O)n(C)c3c-2c(Cl)ccc13 [AZD5991] (first compound max 10 µM, 7x7, partner max 1 µM), the Bliss excess in assay [1] was 0.0048; in assay [2], -0.0286; in [3], -0.0263; in assay [4] it was -0.0207; in assay [5], 0.0008; in [6], -0.0391. Further, the Bliss excess in assay [7] was -0.0652; in [8], -0.0523; in assay [9], -0.0561; in assay [10], -0.0563. The “combination Emax” value in [11] came to 0.127; in assay [12] it was 0.477; in assay [13], 0.118; in [14], 0.748; in assay [15], 0.208; in assay [16], 0.277. Also, the “combination Emax” value in [17] was 0.162; in assay [18] it was 0.937; in assay [19], 0.42; in assay [20] it was 0.366.

For the compound `O=C(c1cc(Cc2n[nH]c(=O)c3ccccc23)ccc1F)N1CCN(C(=O)C2CC2)CC1` [Olaparib] + CC1(C)CCC(CN2CCN(c3ccc(C(=O)NS(=O)(=O)c4ccc(NCC5CCOCC5)c([N+](=O)[O-])c4)c(Oc4cnc5[nH]ccc5c4)c3)CC2)=C(c2ccc(Cl)cc2)C1 [Venetoclax] (first compound max 10 µM, 7x7, partner max 1 µM), the Bliss excess in assay [1] is -0.0275; in assay [2] it was -0.0572; in assay [3], 0.0408; in [4], -0.0329; in [5], 0.158; in assay [6], -0.0213. The Bliss excess in assay [7] was -0.0766; in [8] it was -0.0258; in assay [9], -0.0468; in [10] it was -0.0388. Also, the “combination Emax” value in [11] is 0.203; in [12] it was 0.479; in assay [13], 0.118; in assay [14], 0.284; in assay [15], 0.177; in assay [16], 0.137. For the same compound, the “combination Emax” value was determined as 0.206 in assay [17], 0.322 in [18], 0.314 in assay [19] and 0.225 in [20].

Take `N#Cc1cnc(Nc2cc(NC[C@H]3CNCCO3)c(C(F)(F)F)cn2)cn1` [SRA737] + C=CCn1c(=O)c2cnc(Nc3ccc(N4CCN(C)CC4)cc3)nc2n1-c1cccc(C(C)(C)O)n1 [AZD1775] (first compound max 10 µM, partner max 1 µM): the Bliss excess was 0.107 in [1]; -0.0003 in assay [2]; -0.0015 in [3]; 0.0401 in assay [4]; 0.0231 in assay [5]; 0.0356 in assay [6]. Also, the Bliss excess in [7] was -0.0149; in [8] it was -0.0045; in assay [9] it was 0.0015; in [10], -0.0051. The “combination Emax” value in assay [11] came to 0.709; in assay [12], 0.766; in assay [13], 0.617; in [14], 0.707; in assay [15] it was 0.749; in assay [16], 0.983. Further, the “combination Emax” value in assay [17] worked out at 0.852; in assay [18] it was 0.697; in assay [19], 0.642; in assay [20], 0.507.

On to `Cc1c2c(nn1C)CSCc1cc(n(C)n1)CSc1cc(c3ccccc3c1)OCCCc1c(C(=O)O)n(C)c3c-2c(Cl)ccc13` [AZD5991] + CC(=O)O[C@H]1C(=O)[C@@]2(C)[C@H]([C@H](OC(=O)c3ccccc3)[C@]3(O)C[C@H](OC(=O)[C@H](O)[C@@H](NC(=O)c4ccccc4)c4ccccc4)C(C)=C1C3(C)C)[C@]1(OC(C)=O)CO[C@@H]1C[C@@H]2O [Paclitaxel] (first compound max 1 µM, 7x7, partner max 3 µM), for which the Bliss excess in [1] was 0.0162; in assay [2], -0.0847; in [3] it was -0.0361; in assay [4], 0.044; in [5], -0.0504; in [6], -0.0118. In addition, the Bliss excess is 0.0103 in [7], -0.0228 in [8], 0.0547 in assay [9] and -0.0361 in [10]. In addition, the “combination Emax” value in assay [11] was determined as 0.443; in [12], 0.744; in assay [13], 0.469; in assay [14], 0.943; in [15], 0.584; in assay [16], 0.982. Also, the “combination Emax” value was 0.655 in [17], 0.996 in assay [18], 0.79 in assay [19] and 0.681 in assay [20].

Regarding `Cc1cc2ncnn2cc1Nc1ncc2c(n1)n(C1CCOCC1)c(=O)n2C` [AZD7648] + COc1cc([C@@H]2c3cc4c(cc3[C@@H](O[C@@H]3O[C@@H]5CO[C@@H](C)O[C@H]5[C@H](O)[C@H]3O)[C@H]3COC(=O)[C@H]23)OCO4)cc(OC)c1O [Etoposide] (first compound max 10 µM, 7x7, partner max 10 µM), the Bliss excess is 0.17 in assay [1]; 0.07 in assay [2]; 0.101 in assay [3]; -0.0093 in assay [4]; 0.0783 in assay [5]; -0.0413 in assay [6]. The Bliss excess in assay [7] was 0.0524; in [8], 0.0441; in assay [9], 0.0864; in [10], 0.1. In addition, the “combination Emax” value amounted to 0.553 in assay [11]; 0.85 in assay [12]; 0.425 in assay [13]; 0.686 in [14]; 0.731 in assay [15]; 0.627 in assay [16]. Moreover, the “combination Emax” value stood at 0.704 in assay [17], 0.715 in assay [18], 0.657 in assay [19] and 0.492 in [20].

On to `N#Cc1cnc(Nc2cc(NC[C@H]3CNCCO3)c(C(F)(F)F)cn2)cn1` [SRA737] + CCc1c2c(nc3ccc(O)cc13)-c1cc3c(c(=O)n1C2)COC(=O)[C@]3(O)CC [SN-38] (first compound max 10 µM, 7x7, partner max 0.3 µM), for which the Bliss excess was 0.138 in assay [1]; -0.0989 in [2]; -0.0305 in assay [3]; -0.0977 in assay [4]; 0.0781 in [5]; -0.0419 in assay [6]. Further, the Bliss excess in [7] was 0.022; in [8], -0.0752; in assay [9] it was -0.0523; in assay [10], -0.043. In addition, the “combination Emax” value in assay [11] was determined as 0.638; in assay [12] it was 0.796; in assay [13], 0.516; in [14] it was 0.769; in assay [15], 0.793; in assay [16], 0.898. In addition, the “combination Emax” value in assay [17] turned out to be 0.775; in assay [18], 0.724; in assay [19], 0.791; in assay [20], 0.758.
